Results published in patent US10273224B2, “Substituted pyrimidine compounds, compositions and medicinal applications thereof” (JUBILANT BIOSYS LIMITED, priority 2013, dated 2019).

Target: T1, EGFR (L858R & T790M) (Homo sapiens, UniProt P00533, L858R/T790M)
T1 construct: GST; purchased Proqinase
Assay: EGFR (L858R & T790M) inhibition assay, HTRF method
Conditions: biochemical HTRF; EGFR (T790M/L858R) 2.5 nM, ATP 5 μM, 60 min room temperature
Method in brief: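 GST-EGFR T790M/L858R (2.5 nM) phosphorylating biotinylated gastrin precursor peptide (0.5 μM) with 5 μM ATP in HEPES pH 7.4/Mg/Mn buffer, 60 min room temperature; compounds from 10 μM top. HTRF read-out (Eu anti-pTyr, SA-APC), 665/620 nm; IC50 from % inhibition.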

T1 sequence (P00533 25-1210 T790M/L858R): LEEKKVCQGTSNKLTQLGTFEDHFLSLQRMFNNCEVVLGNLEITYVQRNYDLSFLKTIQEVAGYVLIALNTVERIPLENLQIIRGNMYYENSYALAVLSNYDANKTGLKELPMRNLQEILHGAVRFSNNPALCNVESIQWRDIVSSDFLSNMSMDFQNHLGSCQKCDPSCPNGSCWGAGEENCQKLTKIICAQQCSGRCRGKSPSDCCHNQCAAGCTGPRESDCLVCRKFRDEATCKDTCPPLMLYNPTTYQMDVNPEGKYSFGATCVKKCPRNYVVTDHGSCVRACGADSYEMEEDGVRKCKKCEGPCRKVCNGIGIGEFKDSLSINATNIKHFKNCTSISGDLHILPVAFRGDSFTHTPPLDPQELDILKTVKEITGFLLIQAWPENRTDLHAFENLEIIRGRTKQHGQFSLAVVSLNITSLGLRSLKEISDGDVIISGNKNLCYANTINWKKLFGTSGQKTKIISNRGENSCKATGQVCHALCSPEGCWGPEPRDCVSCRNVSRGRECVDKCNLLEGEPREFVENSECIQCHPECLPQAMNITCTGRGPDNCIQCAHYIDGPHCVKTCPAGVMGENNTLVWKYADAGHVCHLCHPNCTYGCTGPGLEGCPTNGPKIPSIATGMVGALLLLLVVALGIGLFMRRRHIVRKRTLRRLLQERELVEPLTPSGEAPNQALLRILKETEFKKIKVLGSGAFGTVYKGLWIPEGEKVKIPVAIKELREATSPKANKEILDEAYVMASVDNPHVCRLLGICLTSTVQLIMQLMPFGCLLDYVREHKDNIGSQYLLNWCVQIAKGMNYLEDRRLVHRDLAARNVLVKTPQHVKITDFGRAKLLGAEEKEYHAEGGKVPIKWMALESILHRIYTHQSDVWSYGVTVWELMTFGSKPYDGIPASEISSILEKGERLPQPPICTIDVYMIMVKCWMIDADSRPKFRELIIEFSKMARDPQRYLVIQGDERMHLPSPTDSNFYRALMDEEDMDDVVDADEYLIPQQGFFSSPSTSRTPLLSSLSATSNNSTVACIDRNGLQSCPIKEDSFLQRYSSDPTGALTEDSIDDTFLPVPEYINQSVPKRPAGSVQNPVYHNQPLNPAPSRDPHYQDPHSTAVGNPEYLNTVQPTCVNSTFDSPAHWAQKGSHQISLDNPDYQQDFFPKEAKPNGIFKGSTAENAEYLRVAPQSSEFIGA

| Compound | IC50 [nM] |
| --- | --- |
| C=CC(=O)Nc1cccc(Nc2nc(Nc3cn(C)nc3C)ncc2Cl)c1 [Compound I-34, N-(3-((5-chloro-2-((1,3-dimethyl-1H-pyrazol-4-yl)amino)pyrimidin-4-yl)amino)phenyl)acrylamide] | < 10 |
| C=CC(=O)Nc1cccc(Nc2nc(Nc3cnn(C)c3)ncc2Cl)n1 [Compound I-75, N-(6-((5-chloro-2-((1-methyl-1H-pyrazol-4-yl)amino)pyrimidin-4-yl)amino)pyridin-2-yl)acrylamide] | 10 to 100 |
| C=CC(=O)Nc1ccc(F)c(Nc2nc(Nc3cnn(C)c3C)ncc2Cl)c1 [Compound I-71, N-(3-((5-chloro-2-((1,5-dimethyl-1H-pyrazol-4-yl)amino)pyrimidin-4-yl)amino)-4-fluorophenyl)acrylamide] | 10 to 100 |
| C=CC(=O)Nc1cccc(Nc2nc(Nc3cnn(C4CCN(CCF)CC4)c3)ncc2Cl)c1 [Compound I-16, N-(3-((5-chloro-2-((1-(1-(2-fluoroethyl)piperidin-4-yl)-1H-pyrazol-4-yl)amino)pyrimidin-4-yl)amino)phenyl)acrylamide] | < 10 |
| C=CS(=O)(=O)Nc1cc(Nc2nc(Nc3cnn(C4CCN(C)CC4)c3)ncc2Cl)ccc1F [Compound I-64, N-(5-((5-chloro-2-((1-(1-methylpiperidin-4-yl)-1H-pyrazol-4-yl)amino)pyrimidin-4-yl)amino)-2-fluorophenyl)ethenesulfonamide] | 10 to 100 |
| C=C(F)C(=O)Nc1cccc(Nc2nc(Nc3cnn(C)c3)ncc2Cl)c1 [Compound I-33, N-(3-((5-chloro-2-((1-methyl-1H-pyrazol-4-yl)amino)pyrimidin-4-yl)amino)phenyl)-2-fluoroacrylamide] | > 100 |
| C=CC(=O)Nc1cccc(Nc2nc(Nc3nnc(C(F)(F)F)s3)ncc2Cl)c1 [Compound I-44, N-(3-((5-chloro-2-((5-(trifluoromethyl)-1,3,4-thiadiazol-2-yl)amino)pyrimidin-4-yl)amino)phenyl)acrylamide] | > 100 |
| C=CC(=O)Nc1cccc(Nc2nc(Nc3cn(CCOC)nc3C)ncc2Cl)c1 [Compound I-2, N-(3-((5-chloro-2-((1-(2-methoxyethyl)-3-methyl-1H-pyrazol-4-yl)amino)pyrimidin-4-yl)amino)phenyl)acrylamide] | > 100 |
| C=CC(=O)Nc1cccc(Nc2nc(Nc3cnn(C)c3)ncc2C)c1 [Compound I-15, N-(3-((5-methyl-2-((1-methyl-1H-pyrazol-4-yl)amino)pyrimidin-4-yl)amino)phenyl)acrylamide] | 10 to 100 |
| C=CC(=O)Nc1cccc(Oc2nc(Nc3cnn(CCO)c3)ncc2Cl)c1 [Compound I-47, N-(3-((5-chloro-2-((1-(2-hydroxyethyl)-1H-pyrazol-4-yl)amino)pyrimidin-4-yl)oxy)phenyl)acrylamide] | < 10 |

Second part, the molecule after the results:

| IC50 [nM] | Compound |
| --- | --- |
| > 100 | C=CC(=O)N1CCCC(Nc2nc(Nc3cnn(C4CCC4)c3)ncc2Cl)C1 (single isomer, unassigned) [II-5 (Enantiomer 1), 1-(3-((5-chloro-2-((1-cyclobutyl-1H-pyrazol-4-yl)amino)pyrimidin-4-yl)amino)piperidin-1-yl)prop-2-en-1-one] |
| > 100 | Cc1cc(Nc2ncc(Cl)c(NC3CCCC(NC(=O)/C=C/CN(C)C)C3)n2)sn1 (stereo not shown) [Compound I-115, (E)-N-(3-((5-chloro-2-((3-methylisothiazol-5-yl)amino)pyrimidin-4-yl)amino)cyclohexyl)-4-(dimethylamino)but-2-enamide] |
| < 10 | C=CC(=O)Nc1cccc(Nc2nc(Nc3cc(C)ns3)ncc2Cl)c1 [Compound I-122, N-(3-((5-chloro-2-((3-methylisothiazol-5-yl)amino)pyrimidin-4-yl)amino)phenyl)acrylamide] |
| > 100 | C=CC(=O)NC1CCCC(Nc2nc(Nc3cc(COC)n(C)n3)ncc2Cl)C1 (stereo not shown) [Compound I-98, N-(3-((5-chloro-2-((5-(methoxymethyl)-1-methyl-1H-pyrazol-3-yl)amino)pyrimidin-4-yl)amino)cyclohexyl)acrylamide] |
| > 100 | C=CC(=O)NCC1CCCC(Nc2nc(Nc3cnn(C)c3)ncc2Cl)C1 (stereo not shown) [Compound I-108, N-((3-((5-chloro-2-((1-methyl-1H-pyrazol-4-yl)amino)pyrimidin-4-yl)amino)cyclohexyl)methyl)acrylamide] |
| > 100 | C=CC(=O)Nc1ccc(F)c(Nc2nc(Nc3ncc(C#N)s3)ncc2Cl)c1 [Compound I-121, N-(3-((5-chloro-2-((5-cyanothiazol-2-yl)amino)pyrimidin-4-yl)amino)-4-fluorophenyl)acrylamide] |
| 10 to 100 | C=CC(=O)Nc1cccc(Oc2nc(Nc3cnn(CCOC)c3)ncc2Cl)c1 [Compound I-87, N-(3-((5-chloro-2-((1-(2-methoxyethyl)-1H-pyrazol-4-yl)amino)pyrimidin-4-yl)oxy)phenyl)acrylamide] |
| > 100 | C=CC(=O)N1CCCC(Oc2nc(Nc3cnn(C)c3)ncc2Cl)C1 (single isomer, unassigned) [II-12 (Enantiomer 1), 1-(3-((5-chloro-2-((1-methyl-1H-pyrazol-4-yl)amino)pyrimidin-4-yl)oxy)piperidin-1-yl)prop-2-en-1-one] |
| > 100 | C=CC(=O)N1CCCC(Nc2nc(Nc3cnn(C)c3)ncc2Cl)C1 (single isomer, unassigned) [II-2 (Enantiomer 2), 1-(3-((5-chloro-2-((1-methyl-1H-pyrazol-4-yl)amino)pyrimidin-4-yl)amino)piperidin-1-yl)prop-2-en-1-one] |
